Row | melting point [°C] | Structure (SMILES)
1 | 76 to 78 | CCCCCCCC(=O)NCc1ccccc1 [MA-3, N-benzyl octanamide]
2 | 115 to 116 | CCC(=O)/C=C/C=C/C=C/C(=O)CCCCCCCC(=O)NCc1ccccc1 [MA-9, N-benzyl-9,16-dioxo-10E,12E,14E-octadecatrienamide]

— patent publication USRE43005E1, “Compositions and methods for their preparation from lepidium” (Naturex Inc., priority 1999, dated 2011)
